One data set can be described thus: Caco-2 permeation assay. Type of data set: in vitro ADME. The following applies: human. (Passage across Caco-2 layers is used to estimate intestinal permeability.)
For data set [1], the system named is HeLa human cervical tumour cells. Put plainly: Proliferation assay (crystal violet), HeLa. Format: cell-based. As to conditions: read-out: Inhibition of HeLa cell proliferation.
In another data set the target is T1, CDK9/CycT1 (Homo sapiens, UniProt P50750).
T1 construct: Recombinant full-length His-tagged human CDK9 and CycT1; His; purchased Invitrogen PV4131; host or cells: insect cells
Put plainly: CDK9/CycT1 kinase assay (TR-FRET). Type of data set: biochemical. As to conditions: Method 1, 10 μM ATP. In a few lines: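 Full-length His-tagged human CDK9/CycT1 (insect-cell expressed), 15 min compound pre-incubation, then 25 min at 22 °C with 10 µM ATP (final) and 1 µM biotinylated peptide (final) in Tris pH 8.0/MgCl2 buffer. Phospho-substrate detected by TR-FRET (anti-RB pSer807/pSer811, Eu anti-mouse IgG, streptavidin-XL665); 665/622 nm emission ratio as read-out.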
(In general: In TR-FRET formats the signal depends on donor and acceptor labels being close together.)

A further data set deals with T2, CDK2/CycE (Homo sapiens, UniProt P24941).
T2 construct: GST; purchased ProQinase GmbH (Freiburg, Germany); host or cells: insect cells (Sf9)
Put plainly: CDK2/CycE kinase assay (TR-FRET). Type of data set: biochemical. As to conditions: Method 2, 10 μM ATP. In a few lines: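 TR-FRET read-out: emission ratio 665/620 nm via anti-RB(pSer807/pSer811) antibody, Eu-anti-mouse IgG and streptavidin-XL665. Kinase reaction: insect-cell GST-CDK2/CycE, compound pre-bound 15 min, 10 μM ATP final, 0.75 μM biotin-peptide, 25 min, 22 °C, pH 8.0.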

For data set [2], the system named is NCI-H460, human non-small cell lung carcinoma cells. Put plainly: Proliferation assay (crystal violet), NCI-H460. Format: cell-based. The following applies: read-out: Inhibition of H460 cell proliferation (activity range). As for the experimental part:
(§1) Cultivated tumour cells (NCI-H460, human non-small cell lung carcinoma cells, ATCC HTB-177; DU 145, hormone-independent human prostate carcinoma cells, ATCC HTB-81; HeLa-MaTu, human cervical carcinoma cells, EPO-GmbH, Berlin; HeLa-MaTu-ADR, multidrug-resistant human cervical carcinoma cells, EPO-GmbH, Berlin; HeLa human cervical tumour cells, ATCC CCL-2; Caco-2 human colorectal carcinoma, ATCC HTB-37; B16F10 mouse melanoma cells, ATCC CRL-6475) were plated at a density of 5000 cells/well (DU145, HeLa-MaTu-ADR), 3000 cells/well (NCI-H460, HeLa-MaTu, HeLa), 1500 cells/well (Caco-2), or 1000 cells/well (B16F10) in a 96-well multititer plate in 200 μL of their respective growth medium supplemented 10% fetal calf serum. After 24 hours, the cells of one plate (zero-point plate) were stained with crystal violet (see below), while the medium of the other plates was replaced by fresh culture medium (200 μl), to which the test substances were added in various concentrations (0 μM, as well as in the range of 0.001-10 μM; the final concentration of the solvent dimethyl sulfoxide was 0.5%). The cells were incubated for 4 days in the presence of test substances. Cell proliferation was determined by staining the cells with crystal violet: the cells were fixed by adding 20 μl/measuring point of an 11% glutaric aldehyde solution for 15 minutes at room temperature. After three washing cycles of the fixed cells with water, the plates were dried at room temperature. The cells were stained by adding 100 μl/measuring point of a 0.1% crystal violet solution (pH 3.0). After three washing cycles of the stained cells with water, the plates were dried at room temperature. The dye was dissolved by adding 100 μl/measuring point of a 10% acetic acid solution. The extinction was determined by photometry at a wavelength of 595 nm. The change of cell number, in percent, was calculated by normalization of the measured values to the extinction values of the zero-point plate (=0%) and the extinction of the untreated (0 μm) cells (=100%). The IC50 values were determined by means of a 4 parameter fit.

Data set [3] concerns HeLa-MaTu-ADR, multidrug-resistant human cervical carcinoma cells. Put plainly: Proliferation assay (crystal violet), HeLa-MaTu-ADR. Format: cell-based. The following applies: read-out: Inhibition of HeLa/MaTu/ADR cell proliferation. The protocol:
as §1

Data set [4] deals with Caco-2 human colorectal carcinoma. Put plainly: Proliferation assay (crystal violet), Caco-2. Format: cell-based. The following applies: CACO-2 cells, read-out: Inhibition of CACO-2 cell proliferation.
Data set [5] relates to DU 145, hormone-independent human prostate carcinoma cells. Put plainly: Proliferation assay (crystal violet), DU 145. Format: cell-based. As to conditions: DU145 cells, read-out: Inhibition of DU145 cell proliferation.
Data set [6] deals with B16F10 mouse melanoma cells. Put plainly: Proliferation assay (crystal violet), B16F10. The following applies: B16-F10, read-out: Inhibition of B16F10 cell proliferation. Type of data set: cell-based. The protocol:
as §1

Here are results for 3 molecules from patent publication US8916557B2, “Substituted 4-Aryl-N-phenyl-1,3,5-triazin-2-amines” (Bayer Intellectual Property GmbH, priority 2011, dated 2014).

T1 sequence (P50750 whole entry): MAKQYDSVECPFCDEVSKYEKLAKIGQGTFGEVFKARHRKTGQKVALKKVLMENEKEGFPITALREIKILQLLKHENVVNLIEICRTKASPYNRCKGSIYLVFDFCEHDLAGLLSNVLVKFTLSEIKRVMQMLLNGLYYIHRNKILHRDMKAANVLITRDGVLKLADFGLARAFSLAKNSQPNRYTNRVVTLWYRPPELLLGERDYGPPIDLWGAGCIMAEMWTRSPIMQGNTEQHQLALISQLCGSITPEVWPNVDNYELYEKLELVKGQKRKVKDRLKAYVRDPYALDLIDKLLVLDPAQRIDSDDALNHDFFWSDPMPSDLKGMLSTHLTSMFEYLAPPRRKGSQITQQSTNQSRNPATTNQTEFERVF
T1 sequence (O60563 whole entry partner): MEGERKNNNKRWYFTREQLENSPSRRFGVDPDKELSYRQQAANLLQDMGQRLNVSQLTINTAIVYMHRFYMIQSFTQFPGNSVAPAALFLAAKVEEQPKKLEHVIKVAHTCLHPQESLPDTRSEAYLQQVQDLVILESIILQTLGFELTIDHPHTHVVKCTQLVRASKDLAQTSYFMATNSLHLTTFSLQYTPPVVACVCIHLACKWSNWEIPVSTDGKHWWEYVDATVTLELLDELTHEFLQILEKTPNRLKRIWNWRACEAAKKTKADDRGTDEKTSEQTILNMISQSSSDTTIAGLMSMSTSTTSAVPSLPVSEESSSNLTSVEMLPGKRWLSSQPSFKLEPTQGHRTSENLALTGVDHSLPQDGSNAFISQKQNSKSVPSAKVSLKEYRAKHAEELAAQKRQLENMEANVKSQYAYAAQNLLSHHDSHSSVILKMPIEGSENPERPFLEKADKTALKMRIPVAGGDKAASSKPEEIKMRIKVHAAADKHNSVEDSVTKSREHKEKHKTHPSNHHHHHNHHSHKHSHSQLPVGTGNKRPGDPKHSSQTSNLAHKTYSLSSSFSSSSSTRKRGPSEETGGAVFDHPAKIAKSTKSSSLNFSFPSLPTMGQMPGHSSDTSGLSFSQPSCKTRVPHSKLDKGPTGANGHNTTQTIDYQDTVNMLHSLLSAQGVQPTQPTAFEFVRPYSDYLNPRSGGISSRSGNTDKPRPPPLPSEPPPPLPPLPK
Method for Caco-2 permeation assay: Cells were maintained at 37° C. in a humified 5% CO2 atmosphere. Medium was changed every 2-3 day. Before running the permeation assay, the culture medium was replaced by a FCS-free hepes-carbonate transport buffer (pH 7.2). For assessment of monolayer integrity the transepithelial electrical resistance (TEER) was measured. Test compounds were predissolved in DMSO and added either to the apical or basolateral compartment in final concentration of 2 μM in transport buffer. Before and after 2 h incubation at 37° C. samples were taken from both compartments. Analysis of compound content was done after precipitation with methanol by LC/MS/MS analysis. Apparent permeability (Papp) was calculated in the apical to basolateral (Papp A→B) and basolateral to apical (Papp B→A) directions. The apparent permeability was calculated using following equation: Papp=(Vr/Po)(1/S)(P2/t)
Where Vr is the volume of medium in the receiver chamber, Po is the measured peak area or height of the test drug in the donor chamber at t=o, S the surface area of the monolayer, P2 is the measured peak area of the test drug in the acceptor chamber after 2 h of incubation, and t is the incubation time. The efflux ratio basolateral (B) to apical (A) was calculated by dividing the Papp B−A by the Papp A-B. In addition the compound recovery was calculated. The following reference compounds were used for the classification of the permeability class: Antipyrine, Pyrazosin, Verapamil, Fluvastatin, Cimetidine, Ranitidine, Atenolol, Sulfasalazine.

Regarding `CS(=O)(=O)Cc1cccc(Nc2ncnc(-c3ccccc3OCc3cccc(F)c3)n2)c1` [Example 26, 4-{2-[(3-Fluorobenzyl)oxy]phenyl}-N-{3-[(methylsulfonyl)methyl]phenyl}-1,3,5-triazin-2-amine], in “Caco-2 permeation assay” (Caco-2, pH 7.2), the efflux ratio (in general, a quotient of directional permeabilities that is used to spot active efflux) at 2 h, 2 μM was found to be 0.43. The Papp A→B (commonly how fast a substance crosses the layer from the apical side) at 2 h, 2 μM in “Caco-2 permeation assay” (Caco-2 monolayer, 2 μM test compound, 2 h, pH 7.2, read-out: Papp A-B (Mari)) is 16.9 ×10⁻⁶ cm/s. Besides, the Papp B→A – broadly, how fast a substance crosses the layer from the basolateral side – at 2 h, 2 μM in “Caco-2 permeation assay” (Caco-2 monolayer, 2 μM test compound, 2 h, pH 7.2, read-out: Papp B-A (Mari)) came out at 7.2 ×10⁻⁶ cm/s. In addition, the IC50 in data set [1] is 530 nM; against CDK9/CycT1, 3 nM; at CDK2/CycE, 290 nM.
With `CS(=O)(=O)Cc1cccc(Nc2ncnc(-c3ccc(F)cc3OCc3ccc(F)c(F)c3)n2)c1` [Example 86, 4-{2-[(3,4-Difluoro-benzyl)oxy]-4-fluorophenyl}-N-{3-[(methylsulfonyl)-methyl]phenyl}-1,3,5-triazin-2-amine], the IC50 in data set [2] came to 270 nM; in [1] it was 250 nM; in [3] it was 220 nM; in data set [4], 200 nM; in data set [5] it was 230 nM; in data set [6], 250 nM. In addition, the IC50 on CDK9/CycT1 was 6 nM.
For the molecule `CS(=O)(=O)Cc1cccc(Nc2ncnc(-c3ccc(F)cc3OCc3cc(F)cc(F)c3F)n2)c1` [Example 84, 4-{4-Fluoro-2-[(2,3,5-trifluorobenzyl)oxy]phenyl}-N-{3-[(methylsulfonyl)methyl]-phenyl}-1,3,5-triazin-2-amine], the IC50 in data set [2] turned out to be 310 nM; in data set [1], 340 nM; in data set [3] it was 280 nM; in [4], 320 nM; in data set [5], 350 nM; in [6], 490 nM. Besides, on CDK9/CycT1, the IC50 is 3 nM.
